Measurements published in the supplement of paper PMC4954754.
± gives the uncertainty stated by the source.

Experiments:
Conditions in all cases: 18 h
[1] = tested on: HEK293T-Rex ERSE-FLuc; experiment: EC50 for ERSE-FLuc reporter activation
Method: (§1)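 Dose-response of hit compounds in HEK293T-Rex cells stably expressing ERSE-FLuc or XBP1-RLuc reporters, 18 hr treatment, 1536-well; luminescence normalised to 500 nM thapsigargin (100%) and DMSO (0%), fitted to give EC50 (M) and maximal activation; '>' marks EC50 above the top tested dose (~17 µM).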

[2] = tested on: HEK293T-Rex XBP1-RLuc; experiment: EC50 for XBP1-RLuc reporter activation
Method: as §1

[3] = tested on: HEK293T-Rex ERSE-FLuc; experiment: maximal ERSE-FLuc activation from dose-response fit, relative to thapsigargin (% of thapsigargin); higher = stronger activation
Method: as §1

[4] = tested on: HEK293T-Rex XBP1-RLuc; experiment: maximal XBP1-RLuc activation from dose-response fit, relative to thapsigargin (% of thapsigargin); higher = stronger activation
Method: as §1

SMILES	EC50 for ERSE-FLuc reporter activation [1] [µM]	EC50 for XBP1-RLuc reporter activation [2] [µM]	maximal ERSE-FLuc activation [3]	maximal XBP1-RLuc activation [4]
C=CCn1c(N2CCC(C(=O)NCCc3ccc(O)c(O)c3)CC2)nc2ccccc21	8.27	7.94	150 ± 16	97.8 ± 31
CN(C)c1ccc(-c2nc3ccc(N)cc3[nH]2)cc1	> 15.6	> 15.6	42.7 ± 3.8	32 ± 6
Cc1ccc(O)c(-c2cc(-c3cccs3)[nH]n2)c1	8.75	> 18.9	131 ± 8.8	27.5 ± 2.1
CCCc1cc(C(=O)Nc2cc(C)ccc2O)no1	2.84	> 16.9	116 ± 9.5	30 ± 2.2
O=C(CCCCCCC(=O)Nc1ccccc1)NO	6.58	> 16.9	132 ± 25	3.17 ± 2.9
N#C/C(=C\c1ccc(O)c(O)c1)C(=O)Nc1ccccc1	24.6	> 33.8	52.2 ± 13	21.5 ± 0.57
CCOc1cc(C2C(C(=O)OC3CCCCC3)=C(C)NC3=C2C(=O)CC(c2ccc(OC)cc2)C3)cc(Br)c1O (stereo not drawn)	3.95	5.3	70.43 ± 0.082	88.6 ± 10
Cc1ccccc1-c1cc(=O)c2cc(Cl)ccc2o1	> 17	> 17	24.3 ± 3.6	21.7 ± 1.1
O=C1N/C(=C/c2ccc(O)cc2)C(=O)N1c1cccc(Cl)c1	3.19	3.04	85.8 ± 20	100 ± 3
COc1ccc(-c2csc(N(CC3CCCO3)C(=O)CCl)n2)cc1 (stereo not drawn)	> 16.9	> 16.9	17.5 ± 3.4	10.3 ± 0.8
CCCCNC(=O)c1cc(-c2ccc(F)cc2)on1	12.2	> 16.9	68.7 ± 8.5	9.22 ± 4.7
COc1cccc(Nc2nc(-c3ccc(OC)c(F)c3)cs2)c1	> 16.9	> 16.9	19.7 ± 3.5	3.68 ± 1.6
Cc1ccc(NC(=S)NC(=O)C(=O)Nc2ccccc2)cc1	> 16.9	> 16.9	6.38 ± 2.8	2.05 ± 0.91
O=C(NC(c1ccccc1)c1ccccc1)c1csc(-c2cnccn2)n1	> 16.9	> 16.9	34.2 ± 3.6	43.4 ± 9.4
COc1ccc2[nH]c3c(N4CCCCC4)ncnc3c2c1	> 17.1	> 17.1	27.4 ± 2.9	9.73 ± 1.4
O=C(N/N=C/c1cccc(O)c1O)c1ccccc1I	> 16.9	> 16.9	39.5 ± 4.5	17.8 ± 3.8
Cc1ccc(NC(=O)/C=C/c2ccco2)nc1	> 16.9	> 16.9	17.5 ± 3.4	7.43 ± 1.4
Cc1ccc(O)c(NC(=O)CSc2n[nH]c(C)c2[N+](=O)[O-])c1	5.79	> 16.9	98.8 ± 16	37.4 ± 7.3
CCc1ccc(NC(=O)/C=C/c2ccco2)cc1	> 16.8	> 16.8	19.3 ± 2.3	4.4 ± 8.8
Oc1ccccc1/C=N\Nc1nc2ccccc2o1	> 17.3	> 17.3	12.4 ± 3.9	19.8 ± 1.3
CCOC(=O)c1sc(NC(=O)c2cccc3ccccc23)nc1C	> 16.9	> 16.9	25.3 ± 5.7	3.29 ± 3.4
COc1cn(-c2ccc(F)cc2)nc1C(=O)Nc1ccccc1SC	6.64	> 16.9	80.8 ± 17	40.2 ± 0.22
